Experiment in all cases: biochemical
Set-up in all cases: Eurofins KinaseProfiler full panel at Km ATP, residual kinase activity (%) relative to DMSO

The target in one experiment is T1, BrSK1(h) (Homo sapiens, UniProt Q8TDC3).
T1 sequence (Q8TDC3 1-778): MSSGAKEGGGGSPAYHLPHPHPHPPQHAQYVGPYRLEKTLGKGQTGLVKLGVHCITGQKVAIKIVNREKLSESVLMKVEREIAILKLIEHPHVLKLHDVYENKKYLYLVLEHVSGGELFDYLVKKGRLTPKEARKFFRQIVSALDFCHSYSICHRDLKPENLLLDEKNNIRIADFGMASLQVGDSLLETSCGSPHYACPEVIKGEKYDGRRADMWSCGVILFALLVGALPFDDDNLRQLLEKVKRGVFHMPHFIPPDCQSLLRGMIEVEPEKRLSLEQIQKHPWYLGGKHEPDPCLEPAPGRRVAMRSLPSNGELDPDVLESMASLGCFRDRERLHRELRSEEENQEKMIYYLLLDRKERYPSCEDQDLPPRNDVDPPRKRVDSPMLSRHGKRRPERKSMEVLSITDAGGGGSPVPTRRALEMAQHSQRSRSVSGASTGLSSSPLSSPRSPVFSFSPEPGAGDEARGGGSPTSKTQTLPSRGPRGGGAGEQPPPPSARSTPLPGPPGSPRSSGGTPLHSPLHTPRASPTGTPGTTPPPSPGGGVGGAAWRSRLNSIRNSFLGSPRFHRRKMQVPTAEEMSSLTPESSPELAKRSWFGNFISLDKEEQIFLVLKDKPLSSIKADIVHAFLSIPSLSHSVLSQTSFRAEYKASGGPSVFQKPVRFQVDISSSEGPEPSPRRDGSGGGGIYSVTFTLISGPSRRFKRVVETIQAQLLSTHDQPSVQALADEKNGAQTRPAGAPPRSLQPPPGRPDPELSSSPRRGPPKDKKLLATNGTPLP
The method, then:
(§1) Eurofins performed a “Full KP Panel [Km ATP], KinaseProfile” which contains 429 radiometric kinase activity assays. The remaining kinase activity (%) was determined after treatment with the compounds at a concentration of 10 µM (Cfr. supporting information). Since we could not confirm the interaction between Spautin-1 analogues and USP13, a kinase screening was performed using a set of four compounds (Spautin-1 and three analogues) to discover off-targets and identify kinases that are potentially responsible for the reduction in cell viability observed in our screen (Table 2). The KINOMEscan from Eurofins was performed (see Table S1). This screen consists of a competitive binding assay in which the DNA-tagged kinase is incubated with one of the compounds in the presence of immobilized active site binding ligands. Binding of the compounds to the kinase hampers the binding of the kinase to the ligands and this inhibition was quantified by qPCR. The residual kinase activity, which represents the percentage of kinase attached to the immobilized ligands, was determined for 428 kinases at a standard screening concentration of 10 µM of the compounds dissolved in DMSO [61].

The target of a further experiment is T2, CK1γ3(h) (Homo sapiens, UniProt Q9Y6M4).
T2 construct: gene CSNK1G3
Here is the method: as §1

The next experiment concerns the target T3, Fms(Y969C)(h) (Homo sapiens, UniProt P07333, Y969C).
T3 construct: gene CSF1R
Here is the method: as §1

Another experiment addresses T4, GSK3α(h) (Homo sapiens, UniProt P49840).
T4 construct: gene GSK3A
The method, then:
as §1

The next experiment addresses T5, JNK3(h) (Homo sapiens, UniProt P53779).
T5 construct: gene MAPK10
Here is the method: as §1

The target in the next experiment is T6, NEK11(h) (Homo sapiens, UniProt Q8NG66).
T6 sequence (Q8NG66 1-645): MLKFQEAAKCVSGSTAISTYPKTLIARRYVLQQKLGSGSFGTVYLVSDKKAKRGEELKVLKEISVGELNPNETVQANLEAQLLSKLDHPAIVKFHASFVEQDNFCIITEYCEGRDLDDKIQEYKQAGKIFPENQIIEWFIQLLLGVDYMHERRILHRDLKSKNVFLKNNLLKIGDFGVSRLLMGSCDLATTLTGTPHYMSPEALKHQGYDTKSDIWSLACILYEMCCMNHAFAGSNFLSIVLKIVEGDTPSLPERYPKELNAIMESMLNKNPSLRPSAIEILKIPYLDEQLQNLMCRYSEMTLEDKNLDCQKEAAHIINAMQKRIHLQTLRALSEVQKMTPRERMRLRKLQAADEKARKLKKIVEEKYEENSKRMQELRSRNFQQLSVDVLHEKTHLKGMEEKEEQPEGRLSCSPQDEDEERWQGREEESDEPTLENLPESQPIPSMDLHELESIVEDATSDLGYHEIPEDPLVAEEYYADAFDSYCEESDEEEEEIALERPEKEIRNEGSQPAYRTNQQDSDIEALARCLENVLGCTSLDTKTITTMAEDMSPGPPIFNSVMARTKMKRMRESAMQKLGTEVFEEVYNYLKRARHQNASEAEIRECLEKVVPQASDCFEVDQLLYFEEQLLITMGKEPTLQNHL
The method, then: as §1

The target in the next experiment is T7, Wee1B(h) (Homo sapiens, UniProt P0C1S8).
T7 construct: gene WEE2
The method, then: as §1

For the next experiment, the target named is T8, ZAK(h) (Homo sapiens, UniProt Q9NYL2).
T8 construct: gene MAP3K20
The method, then: as §1

Setting [1] is: read-out: Residual activity (%) Spautin-1 5aa.
Setting [2] is: read-out: Residual activity (%) 5as.
Where [3] appears, read: read-out: Residual activity (%) 5at.
Where [4] appears, read: read-out: Residual activity (%) 5ay.

Remaining activity data for 4 molecules are collected here from publication PMC7827406, “Structure–Activity Relationship (SAR) Study of Spautin-1 to Entail the Discovery of Novel NEK4 Inhibitors” (International Journal of Molecular Sciences, 2021).

Read-outs that look alike come from different tables or passages of the source.

T3 sequence (P07333 whole entry Y969C): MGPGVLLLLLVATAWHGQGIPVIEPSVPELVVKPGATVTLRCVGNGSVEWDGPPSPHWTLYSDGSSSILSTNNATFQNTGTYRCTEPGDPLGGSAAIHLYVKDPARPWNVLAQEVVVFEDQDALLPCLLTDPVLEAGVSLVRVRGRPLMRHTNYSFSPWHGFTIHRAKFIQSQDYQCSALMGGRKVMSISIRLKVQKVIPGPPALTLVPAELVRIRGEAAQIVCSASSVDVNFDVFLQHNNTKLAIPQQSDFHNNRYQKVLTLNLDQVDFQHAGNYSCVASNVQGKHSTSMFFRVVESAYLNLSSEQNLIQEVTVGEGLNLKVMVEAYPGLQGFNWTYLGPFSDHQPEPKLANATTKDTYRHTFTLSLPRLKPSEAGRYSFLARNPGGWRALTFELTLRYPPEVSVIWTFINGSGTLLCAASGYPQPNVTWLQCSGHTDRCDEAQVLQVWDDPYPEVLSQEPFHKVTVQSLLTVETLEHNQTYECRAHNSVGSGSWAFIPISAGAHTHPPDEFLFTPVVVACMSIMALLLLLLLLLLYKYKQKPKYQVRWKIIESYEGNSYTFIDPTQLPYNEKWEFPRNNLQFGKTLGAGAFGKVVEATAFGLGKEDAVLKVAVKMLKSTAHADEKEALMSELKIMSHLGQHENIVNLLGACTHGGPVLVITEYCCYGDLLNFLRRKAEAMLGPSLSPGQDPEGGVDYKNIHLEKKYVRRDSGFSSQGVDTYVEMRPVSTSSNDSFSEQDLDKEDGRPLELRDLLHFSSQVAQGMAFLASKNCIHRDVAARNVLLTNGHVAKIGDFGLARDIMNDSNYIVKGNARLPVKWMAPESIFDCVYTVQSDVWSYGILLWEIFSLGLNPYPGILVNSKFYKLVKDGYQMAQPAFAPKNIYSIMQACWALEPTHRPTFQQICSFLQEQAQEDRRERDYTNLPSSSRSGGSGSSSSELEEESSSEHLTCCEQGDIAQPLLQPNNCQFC
T4 sequence (P49840 whole entry): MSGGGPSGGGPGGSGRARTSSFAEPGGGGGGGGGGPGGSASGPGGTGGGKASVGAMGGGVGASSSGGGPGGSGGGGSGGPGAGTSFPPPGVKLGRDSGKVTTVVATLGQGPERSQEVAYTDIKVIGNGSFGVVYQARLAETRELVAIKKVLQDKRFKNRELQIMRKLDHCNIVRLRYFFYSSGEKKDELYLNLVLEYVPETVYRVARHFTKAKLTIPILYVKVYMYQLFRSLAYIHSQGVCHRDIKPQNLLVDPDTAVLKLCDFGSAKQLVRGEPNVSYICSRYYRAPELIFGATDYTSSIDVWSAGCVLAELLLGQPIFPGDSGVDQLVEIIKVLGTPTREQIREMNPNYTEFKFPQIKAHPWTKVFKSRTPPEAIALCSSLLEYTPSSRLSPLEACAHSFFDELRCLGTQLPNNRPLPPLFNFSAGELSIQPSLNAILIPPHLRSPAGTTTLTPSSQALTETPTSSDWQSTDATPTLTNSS
T7 sequence (P0C1S8 whole entry): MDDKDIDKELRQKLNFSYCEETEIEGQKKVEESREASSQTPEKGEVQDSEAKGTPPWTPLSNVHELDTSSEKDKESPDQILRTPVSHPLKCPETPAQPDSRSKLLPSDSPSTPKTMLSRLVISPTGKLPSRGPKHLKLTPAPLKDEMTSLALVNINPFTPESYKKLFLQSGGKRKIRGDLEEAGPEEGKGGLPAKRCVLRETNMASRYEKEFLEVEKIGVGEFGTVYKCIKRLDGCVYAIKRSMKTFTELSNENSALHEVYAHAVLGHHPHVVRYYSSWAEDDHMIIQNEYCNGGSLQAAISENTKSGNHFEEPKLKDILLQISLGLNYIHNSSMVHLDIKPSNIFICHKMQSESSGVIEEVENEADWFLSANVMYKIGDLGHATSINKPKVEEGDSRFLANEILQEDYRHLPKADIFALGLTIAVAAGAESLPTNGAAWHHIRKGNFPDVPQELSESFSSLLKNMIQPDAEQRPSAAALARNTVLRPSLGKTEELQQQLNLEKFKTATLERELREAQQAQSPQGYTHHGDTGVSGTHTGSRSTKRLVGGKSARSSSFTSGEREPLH
T8 sequence (Q9NYL2 whole entry): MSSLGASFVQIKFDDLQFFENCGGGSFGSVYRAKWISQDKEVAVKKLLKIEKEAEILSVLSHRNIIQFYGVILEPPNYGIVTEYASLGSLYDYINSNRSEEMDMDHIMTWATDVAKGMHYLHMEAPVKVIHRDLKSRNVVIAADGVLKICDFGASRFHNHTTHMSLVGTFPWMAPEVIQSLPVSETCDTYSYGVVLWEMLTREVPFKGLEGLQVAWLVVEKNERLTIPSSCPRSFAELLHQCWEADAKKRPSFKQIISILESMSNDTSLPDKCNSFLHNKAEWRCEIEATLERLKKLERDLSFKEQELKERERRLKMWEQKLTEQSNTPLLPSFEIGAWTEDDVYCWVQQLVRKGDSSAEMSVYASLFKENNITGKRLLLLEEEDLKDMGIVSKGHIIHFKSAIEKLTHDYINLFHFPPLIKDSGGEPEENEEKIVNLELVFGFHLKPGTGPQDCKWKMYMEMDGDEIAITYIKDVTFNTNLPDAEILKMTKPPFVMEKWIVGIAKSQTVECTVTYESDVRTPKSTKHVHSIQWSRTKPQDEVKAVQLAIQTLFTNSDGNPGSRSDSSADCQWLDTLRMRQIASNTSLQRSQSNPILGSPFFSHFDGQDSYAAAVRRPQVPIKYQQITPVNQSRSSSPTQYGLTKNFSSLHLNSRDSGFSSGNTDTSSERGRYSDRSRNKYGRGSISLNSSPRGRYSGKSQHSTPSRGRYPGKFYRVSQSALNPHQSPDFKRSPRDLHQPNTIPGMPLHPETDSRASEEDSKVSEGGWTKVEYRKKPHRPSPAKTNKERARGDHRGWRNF
T5 sequence (P53779 whole entry): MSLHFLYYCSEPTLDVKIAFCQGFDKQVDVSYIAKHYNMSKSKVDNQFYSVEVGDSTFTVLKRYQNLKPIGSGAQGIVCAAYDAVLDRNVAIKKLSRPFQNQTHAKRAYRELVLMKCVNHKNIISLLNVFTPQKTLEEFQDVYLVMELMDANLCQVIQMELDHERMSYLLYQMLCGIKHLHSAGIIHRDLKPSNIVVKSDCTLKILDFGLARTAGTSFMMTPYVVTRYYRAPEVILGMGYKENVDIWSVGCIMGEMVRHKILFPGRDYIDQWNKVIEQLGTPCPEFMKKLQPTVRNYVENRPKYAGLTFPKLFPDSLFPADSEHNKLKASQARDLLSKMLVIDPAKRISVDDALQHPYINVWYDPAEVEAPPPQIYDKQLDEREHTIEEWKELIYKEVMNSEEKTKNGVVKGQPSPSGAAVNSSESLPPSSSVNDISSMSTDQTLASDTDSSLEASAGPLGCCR
T2 sequence (Q9Y6M4 whole entry): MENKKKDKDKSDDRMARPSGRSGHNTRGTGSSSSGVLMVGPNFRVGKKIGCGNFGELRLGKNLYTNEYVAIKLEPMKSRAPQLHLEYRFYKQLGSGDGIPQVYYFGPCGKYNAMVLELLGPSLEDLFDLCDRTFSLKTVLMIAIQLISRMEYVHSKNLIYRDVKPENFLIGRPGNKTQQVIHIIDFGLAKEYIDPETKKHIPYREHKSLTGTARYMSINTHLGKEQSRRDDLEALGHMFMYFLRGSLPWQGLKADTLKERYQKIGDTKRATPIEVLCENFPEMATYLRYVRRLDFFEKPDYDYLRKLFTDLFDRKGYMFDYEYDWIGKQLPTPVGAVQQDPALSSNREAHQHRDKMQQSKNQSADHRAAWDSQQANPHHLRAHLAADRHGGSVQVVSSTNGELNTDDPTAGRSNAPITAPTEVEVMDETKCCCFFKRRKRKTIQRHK

`Fc1ccc(CNc2ncnc3ccc(F)cc23)cc1` [5aa, 6-Fluoro-N-(4-fluorobenzyl)-4-Quinazolinamine]: the remaining activity at 10 µM stood at 85% on BrSK1(h) (setting [1]); 81% on CK1γ3(h) (setting [1]); 81% at Fms(Y969C)(h) (setting [1]); 93% on GSK3α(h) (setting [1]); 90% on JNK3(h) (setting [1]); 41% at NEK11(h) (setting [1]). For the same molecule, the remaining activity at 10 µM was 95% on Wee1B(h) (setting [1]) and 70% at ZAK(h) (setting [1]).
In the case of `Fc1ccc(CCNc2ncnc3ccc(F)cc23)cc1` [5as, 6-Fluoro-N-[2-(4-Fluorophenyl)Ethyl]-4-Quinazolinamine], the remaining activity at 10 µM on BrSK1(h) (setting [2]) is 89%; at CK1γ3(h) (setting [2]), 87%; on Fms(Y969C)(h) (setting [2]) it was 80%; at GSK3α(h) (setting [2]), 101%; at JNK3(h) (setting [2]), 98%; on NEK11(h) (setting [2]), 71%. The remaining activity at 10 µM at Wee1B(h) (setting [2]) stood at 99%; at ZAK(h) (setting [2]), 61%.
With `Fc1ccc2ncnc(NCCc3ccc(Cl)cc3)c2c1` [5at, N-[2-(4-Chlorophenyl)Ethyl]-6-Fluoro-4-Quinazolinamine], the remaining activity at 10 µM on BrSK1(h) (setting [3]) came to 112%; on CK1γ3(h) (setting [3]), 73%; on Fms(Y969C)(h) (setting [3]), 78%; on GSK3α(h) (setting [3]) it was 102%; at JNK3(h) (setting [3]), 107%; at NEK11(h) (setting [3]), 45%. Besides, the remaining activity at 10 µM on Wee1B(h) (setting [3]) came out at 100%; at ZAK(h) (setting [3]), 72%.
On to `COc1ccc2ncnc(Nc3cccc(F)c3)c2c1` [5ay, N-(3-Fluorophenyl)-6-Methoxy-4-Quinazolinamine], for which the remaining activity at 10 µM at BrSK1(h) (setting [4]) was determined as 30%; at CK1γ3(h) (setting [4]) it was 83%; at Fms(Y969C)(h) (setting [4]), 87%; on GSK3α(h) (setting [4]) it was 69%; on JNK3(h) (setting [4]), 90%; on NEK11(h) (setting [4]), 53%. Also, the remaining activity at 10 µM at Wee1B(h) (setting [4]) amounted to 106%; at ZAK(h) (setting [4]), 61%.
